Reference: patent US20260355323A1, “CEREBLON-RECRUITING BCL-XL/BCL-2 DUAL DEGRADERS” (University of Florida Research Foundation, Incorporated, priority 2022, published 2026)

Legend:
[1] = tested on: MOLT-4 acute lymphoblastic leukemia cells; experiment: Cell viability, tetrazolium-based MTS assay, MOLT-4; details: Homo sapiens, MOLT-4, 48 h; read-out: Anti-Cancer Activity EC50 (48 hr), MOLT-4
Procedure: (§1) Acute lymphoblastic leukemia cells (MOLT-4 and RS4;11) were incubated with increasing concentrations of Bcl-xL/Bcl-2 degraders for 48 h. Cell viability was measured by tetrazolium-based MTS assay.

[2] = tested on: RS4;11 acute lymphoblastic leukemia cells; experiment: Cell viability, tetrazolium-based MTS assay, RS4;11; details: Homo sapiens, RS4;11, 48 h, read-out: Anti-Cancer Activity EC50 (48 hr), RS4
Procedure: as §1

[3] = tested on: WI-38 NC; experiment: Senolytic activity, cell viability (PrestoBlue HS), WI-38 NC; format: cell-based; details: Homo sapiens, 72 h
Procedure: (§2) WI-38 and HUVEC cells were incubated with increasing concentrations of degraders for 72 h. Cell viability was measured using PrestoBlue HS cell viability reagent.

[4] = tested on: WI-38 irradiation-induced senescent cells (IR-SC); experiment: Senolytic activity, cell viability (PrestoBlue HS), WI-38 IR-SC; format: cell-based; details: Homo sapiens, 72 h
Procedure: (§3) To induce senescence in WI-38 and HUVEC, cells were subjected to x-ray irradiation at 20 Gray using X-RAD 320 biological irradiator. Following between 10 to 15 days after irradiation, senescence was induced in cells, and irradiation-induced senescent cells (IR-SC) were then used for cell viability and Western blotting tests.
as §2

[5] = tested on: HUVEC irradiation-induced senescent cells (IR-SC); experiment: Senolytic activity, cell viability (PrestoBlue HS), HUVEC IR-SC; format: cell-based; details: Homo sapiens, 72 h
Procedure: as §3, §2

| SMILES | EC50 [1] | EC50 [2] | EC50 [3] | EC50 [4] | EC50 [5] |
| --- | --- | --- | --- | --- | --- |
| C[C@@]1(CN2CCC(CN3CCN(CC#Cc4ccc5c(c4)CN(C4CCC(=O)NC4=O)C5=O)CC3)CC2)CCC(c2ccc(Cl)cc2)=C(CN2CCN(c3ccc(C(=O)NS(=O)(=O)c4ccc(N[C@H](CCN5CCCOCC5)CSc5ccccc5)c(S(=O)(=O)C(F)(F)F)c4)cc3)CC2)C1 (stereo partly drawn) [Compound 13, N-((4-(((R)-4-(1,4-oxazepan-4-yl)-1-(phenylthio)butan-2-yl)amino)-3-((trifluoromethyl)sulfonyl)phenyl)sulfonyl)-4-(4-(((4R)-4′-chloro-4-((4-((4-(3-(2-(2,6-12 dioxopiperidin-3-yl)-1-oxoisoindolin-5-yl)prop-2-yn-1-yl)piperazin-1-yl)methyl)piperidin-1-yl)methyl)-4-methyl-3,4,5,6-tetrahydro-[1,1′-biphenyl]-2-yl)methyl)piperazin-1-14 yl)benzamide] | < 1 nM | < 1 nM | > 10000 nM | 1 to 10 nM | – |
| CC1(CN2CCN(C(=O)CN3CCN(C(=O)COCCNc4cccc5c4C(=O)N(C4CCC(=O)NC4=O)C5=O)CC3)CC2)CCC(c2ccc(Cl)cc2)=C(CN2CCN(c3ccc(C(=O)NS(=O)(=O)c4ccc(N[C@H](CCN5CCOCC5)CSc5ccccc5)c(S(=O)(=O)C(F)(F)F)c4)cc3)CC2)C1 (stereo partly drawn) [Compound 15, 4-(4-((4′-chloro-4-((4-(2-(4-(2-(2-((2-(2,6-dioxopiperidin-3-yl)-1,3-dioxoisoindolin-4-yl)amino)ethoxy)acetyl)piperazin-1-yl)acetyl)piperazin-1-yl)methyl)-4-methyl-3,4,5,6-tetrahydro-[1,1′-biphenyl]-2-yl)methyl)piperazin-1-yl)-N-((4-(((R)-4-morpholino-1-30 (phenylthio)butan-2-yl)amino)-3-((trifluoromethyl)sulfonyl)phenyl)sulfonyl)benzamide] | < 1 nM | < 1 nM | > 10000 nM | 10000 to 100000 nM | – |
| CC1(CN2CCN(C(=O)CN3CCN(C(=O)COc4cccc5c4C(=O)N(C4CCC(=O)NC4=O)C5=O)CC3)CC2)CCC(c2ccc(Cl)cc2)=C(CN2CCN(c3ccc(C(=O)NS(=O)(=O)c4ccc(N[C@H](CCN5CCOCC5)CSc5ccccc5)c(S(=O)(=O)C(F)(F)F)c4)cc3)CC2)C1 (stereo partly drawn) [Compound 18, 4-(4-((4′-chloro-4-((4-(2-(4-(2-((2-(2,6-dioxopiperidin-3-yl)-1,3-dioxoisoindolin-4-yl)oxy)acetyl)piperazin-1-yl)acetyl)piperazin-1-yl)methyl)-4-methyl-3,4,5,6-tetrahydro-[1,1′-biphenyl]-2-yl)methyl)piperazin-1-yl)-N-((4-(((R)-4-morpholino-1-(phenylthio)butan-2-yl)amino)-3-((trifluoromethyl)sulfonyl)phenyl)sulfonyl)benzamide] | < 1 nM | < 1 nM | > 10000 nM | 10 to 100 nM | – |
| C[C@@]1(CN2CCN(C(=O)CCCN3CCN(c4ccc5c(c4)CN(C4CCC(=O)NC4=O)C5=O)CC3)CC2)CCC(c2ccc(Cl)cc2)=C(CN2CCN(c3ccc(C(=O)NS(=O)(=O)c4ccc(N[C@H](CCN5CCCOCC5)CSc5ccccc5)c(S(=O)(=O)C(F)(F)F)c4)cc3)CC2)C1 (stereo partly drawn) [Compound 2, N-((4-(((R)-4-(1,4-oxazepan-4-yl)-1-(phenylthio)butan-2-yl)amino)-3-((trifluoromethyl)sulfonyl)phenyl)sulfonyl)-4-(4-(((4R)-4′-chloro-4-((4-(4-(4-(2-(2,6-dioxopiperidin-3-yl)-1-oxoisoindolin-5-yl)piperazin-1-yl)butanoyl)piperazin-1-yl)methyl)-4-methyl-3,4,5,6-tetrahydro-[1,1′-biphenyl]-2-yl)methyl)piperazin-1-yl)benzamide] | < 1 nM | < 1 nM | > 10000 nM | 1 to 10 nM | – |
| C[C@@]1(CN2CCN(C(=O)CCCN3CCC(CN4CCN(c5ccc6c(c5)CN(C5CCC(=O)NC5=O)C6=O)CC4)CC3)CC2)CCC(c2ccc(Cl)cc2)=C(CN2CCN(c3ccc(C(=O)NS(=O)(=O)c4ccc(N[C@H](CCN5CCCOCC5)CSc5ccccc5)c(S(=O)(=O)C(F)(F)F)c4)cc3)CC2)C1 (stereo partly drawn) [Compound 9, N-((4-(((R)-4-(1,4-oxazepan-4-yl)-1-(phenylthio)butan-2-yl)amino)-3-((trifluoromethyl)sulfonyl)phenyl)sulfonyl)-4-(4-(((4R)-4′-chloro-4-((4-(4-(4-((4-(2-(2,6-dioxopiperidin-3-yl)-1-oxoisoindolin-5-yl)piperazin-1-yl)methyl)piperidin-1-yl)butanoyl)piperazin-1-yl)methyl)-4-methyl-3,4,5,6-tetrahydro-[1,1′-biphenyl]-2-yl)methyl)piperazin-1-yl)benzamide] | < 1 nM | < 1 nM | > 10000 nM | 10 to 100 nM | – |
| C[C@@]1(CN2CCN(C(=O)CN3CCC(CCc4ccc5c(c4)CN(C4CCC(=O)NC4=O)C5=O)CC3)CC2)CCC(c2ccc(Cl)cc2)=C(CN2CCN(c3ccc(C(=O)NS(=O)(=O)c4ccc(N[C@H](CCN5CCCOCC5)CSc5ccccc5)c(S(=O)(=O)C(F)(F)F)c4)cc3)CC2)C1 (stereo partly drawn) [Compound 7, N-((4-(((R)-4-(1,4-oxazepan-4-yl)-1-(phenylthio)butan-2-yl)amino)-3-((trifluoromethyl)sulfonyl)phenyl)sulfonyl)-4-(4-(((4R)-4′-chloro-4-((4-(2-(4-(2-(2-(2,6-dioxopiperidin-3-yl)-1-oxoisoindolin-5-yl)ethyl)piperidin-1-yl)acetyl)piperazin-1-yl)methyl)-4-methyl-3,4,5,6-tetrahydro-[1,1′-biphenyl]-2-yl)methyl)piperazin-1-yl)benzamide] | < 1 nM | < 1 nM | > 10000 nM | 1 to 10 nM | – |
| C[C@@]1(CN2CCN(C(=O)CN3CCC(CN4CCN(c5ccc6c(c5)CN(C5CCC(=O)NC5=O)C6=O)CC4)CC3)CC2)CCC(c2ccc(Cl)cc2)=C(CN2CCN(c3ccc(C(=O)NS(=O)(=O)c4ccc(N[C@H](CCN5CCCOCC5)CSc5ccccc5)c(S(=O)(=O)C(F)(F)F)c4)cc3)CC2)C1 (stereo partly drawn) [Compound 8, N-((4-(((R)-4-(1,4-oxazepan-4-yl)-1-(phenylthio)butan-2-yl)amino)-3-((trifluoromethyl)sulfonyl)phenyl)sulfonyl)-4-(4-(((4R)-4′-chloro-4-((4-(2-(4-((4-(2-(2,6-dioxopiperidin-3-yl)-1-oxoisoindolin-5-yl)piperazin-1-yl)methyl)piperidin-1-yl)acetyl)piperazin-1-yl)methyl)-4-methyl-3,4,5,6-tetrahydro-[1,1′-biphenyl]-2-yl)methyl)piperazin-1-yl)benzamide] | < 1 nM | < 1 nM | > 10000 nM | 1 to 10 nM | – |
| C[C@@]1(CN2CCN(c3ccc4c(c3)C(=O)N(C3CCC(=O)NC3=O)C4)CC2)CCC(c2ccc(Cl)cc2)=C(CN2CCN(c3ccc(C(=O)NS(=O)(=O)c4ccc(N[C@H](CCN5CCCOCC5)CSc5ccccc5)c(S(=O)(=O)C(F)(F)F)c4)cc3)CC2)C1 (stereo partly drawn) [Compound 133, N-((4-(((R)-4-(1,4-oxazepan-4-yl)-1-(phenylthio)butan-2-yl)amino)-3-((trifluoromethyl)sulfonyl)phenyl)sulfonyl)-4-(4-(((4R)-4′-chloro-4-((4-(2-(2,6-dioxopiperidin-3-yl)-3-oxoisoindolin-5-yl)piperazin-1-yl)methyl)-4-methyl-3,4,5,6-tetrahydro-[1,1′-biphenyl]-2-yl)methyl)piperazin-1-yl)benzamide] | < 1 nM | 1 to 10 nM | – | 10 to 100 nM | < 1 nM |
